Laboratory results published in PMC7177833, “2-Aminopyridine Analogs Inhibit Both Enzymes of the Glyoxylate Shunt in Pseudomonas aeruginosa” (International Journal of Molecular Sciences, 2020).
pIC50, pKd: −log10 of the molar value. Values joined by “and” are separate entries in the source; they are usually repeats but may differ in a detail not shown here. Equal values may be shown once.

What was measured:
ICLPa = target: T1, ICLPa (Pseudomonas aeruginosa, UniProt Q9I0K4); assay: Isothermal titration calorimetry, ICLPa; conditions: ITC
T1 sequence (Q9I0K4 1-531): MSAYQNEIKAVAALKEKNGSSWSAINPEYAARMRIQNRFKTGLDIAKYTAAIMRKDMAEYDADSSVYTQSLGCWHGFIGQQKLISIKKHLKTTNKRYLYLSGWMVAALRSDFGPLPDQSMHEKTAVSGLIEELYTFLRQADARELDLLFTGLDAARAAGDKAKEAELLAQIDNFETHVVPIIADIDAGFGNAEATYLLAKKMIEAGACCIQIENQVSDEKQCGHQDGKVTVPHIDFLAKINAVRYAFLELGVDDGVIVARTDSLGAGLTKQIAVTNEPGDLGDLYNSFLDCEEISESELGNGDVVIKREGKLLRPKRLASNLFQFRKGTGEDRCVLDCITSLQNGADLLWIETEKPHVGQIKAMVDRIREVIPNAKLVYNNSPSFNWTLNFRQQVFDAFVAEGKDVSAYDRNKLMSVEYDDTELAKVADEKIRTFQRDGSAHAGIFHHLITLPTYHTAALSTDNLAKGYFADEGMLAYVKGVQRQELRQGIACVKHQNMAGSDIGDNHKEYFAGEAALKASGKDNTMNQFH
Procedure: Protein samples were dialyzed (2 × 1 L) in a D-tube dialyzer (Merck, Watford, UK) for 3 h in 25 mM Tris-HCl, 100 mM NaCl, and 0.1 mM TCEP (pH 7.5). […] The syringe and the cell both contained a final concentration of 0.1% DMSO. The injection parameters for MSPa were: Reference power 15 µcal/sec, initial injection of 3 µL (3.6 sec per injection) with subsequent injections of 10 µL (12 sec per injection). Injections were spaced by 150 sec with a filter period of 2 sec. The injection parameters for ICLPa were: Reference power 15 µcal/sec, initial injection of 3 µL (3.6 sec per injection) with subsequent injections of 8 µL (10 sec per injection). Injections were spaced by 170 sec with a filter period of 2 sec. Data were analyzed in NITPIC (NITPIC, Bethesda, MD, USA) [31] for baseline calculations and then fit for thermodynamic parameters using the OneSite model in Origin 7.0 software (Origin Software Solutions, Bristol, UK). Each titration was carried out in duplicate.

CYP2C19 = target: T2, CYP2C19 (Homo sapiens, UniProt P33261); assay: CYP450 inhibition in HLM, mephenytoin probe; assay type: in vitro ADME
T2 construct: pooled human liver microsomes; tissue BioIVT; host or cells: pooled human liver microsomes
Procedure: The CYP450 inhibition was determined by measuring the reaction products of known CYP450 substrates (probes). […] These probe solutions were dispensed (195 µL) into clear 96-well plates with low evaporation lids (Corning, Turin, Italy) and the plates were prewarmed to 37 °C in a thermomixer (Hamilton, Agrate Brianza, Italy). Next, 5 µL of the test compound or appropriate positive control (Table S4) were added to the wells and the plates were incubated for a further 5 min. Following this, the reactions were started by adding NADPH regenerating solution (50 µL, see previous Section 4.7) to each well. CYP450 mixtures containing phenacetin, rosiglitazone, mephenytoin, atorvastatin, and nifedipine probes were incubated for 10 min at 37 °C, whereas those with midazolam and diclofenac were incubated for 5 min at 37 °C. […]
Probe products were analyzed on an API4000 Qtrap mass spectrometer (Applied Biosystems/MDS SCIEX, Monza, Italy) coupled with an Acquity UPLC system (Waters, Milan, Italy) and a CTC-PAL auto-injector (CTC Analytics AG, Zwingen, Switzerland). […] The analytes were quantified in multiple reaction-monitoring mode. Data were processed, and the percentage control activity was calculated based on a comparison between the ratio of the sample peak area and the peak area.

[1] = 25 °C, reverse titration, ICLPa

T2 sequence (P33261 whole entry): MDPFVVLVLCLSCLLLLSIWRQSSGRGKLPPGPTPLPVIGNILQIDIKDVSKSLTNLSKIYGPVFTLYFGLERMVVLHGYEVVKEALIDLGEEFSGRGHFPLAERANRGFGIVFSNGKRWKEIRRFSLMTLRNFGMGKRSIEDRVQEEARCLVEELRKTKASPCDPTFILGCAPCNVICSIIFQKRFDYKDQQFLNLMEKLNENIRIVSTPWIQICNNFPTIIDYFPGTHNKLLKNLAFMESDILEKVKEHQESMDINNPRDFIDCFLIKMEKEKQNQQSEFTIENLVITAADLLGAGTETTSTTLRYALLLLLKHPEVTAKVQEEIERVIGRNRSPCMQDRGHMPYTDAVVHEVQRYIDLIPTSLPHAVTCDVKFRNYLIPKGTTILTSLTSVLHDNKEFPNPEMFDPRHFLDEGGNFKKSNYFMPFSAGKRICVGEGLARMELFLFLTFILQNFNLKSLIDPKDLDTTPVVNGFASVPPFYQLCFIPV

SMILES: CC(C)(C)OC(=O)/N=C(\NC(=O)OC(C)(C)C)Nc1cc(Cl)ccn1 [SB002]
- Ka (ICLPa; [1]): 718000 ± 149000 M
- pKd (ICLPa; [1]): 5.84
- ΔG (ICLPa; [1]): −7.98 ± 3.44×10^−1 kcal/mol
- ΔH (ICLPa; [1]): −4.22 ± 3.44×10^−1 kcal/mol
- −TΔS (ICLPa; [1]): -3.76 kcal/mol
- n (binding sites) (ICLPa; per monomeric unit of ICLPa): 0.53 and 0.53 ± 3.25 × 10^−2
- IC50 CYP450 2C19 (CYP2C19): some evidence of interacting with the turnover of mephenytoin
- pIC50 (CYP2C19; read-out: IC50 CYP450 2C19): 3.90
